In ChEMBL document CHEMBL3507680, “University of Dundee, Gates Library screen for HepG2 cell viability” one finds cytotoxicity data, which are given here for 99 compounds.

This data set in a line: Human HepG2 cell viability assay in 384 well format. The format is toxicity, cell-based. Also noted: dose 125 nL, time 70.5 hour; concentration not given beside the values. The settings on record: HepG2 cells, read-out: Inhibition.
For the compound `COc1cccc(C(=O)N2CCc3ncnc(C)c3CC2)c1`, the cytotoxicity at 70.5 h was -5.4%. With `Cc1nc2c(c(N3CCC4(CCCNC4=O)C3)n1)CCC2` (centres undefined), the cytotoxicity at 70.5 h is -4.16%. With `COc1cc(C2CC(=O)Nc3c2nc2n3CCCC2)ccc1O` (centres undefined), the cytotoxicity at 70.5 h was -7.4%. On to `CO[C@H]1CO[C@@]2(CCCN(C(=O)C3CC=CC3)C2)C1`, for which the cytotoxicity at 70.5 h was -0.276%. `Cn1ccc(-c2cc(C(=O)N3CCCCC3)c3ccccn23)n1`: the cytotoxicity at 70.5 h came out at 4.75%. For `COCCO[C@H]1CCN(c2ccc(C)nn2)[C@H]1Cc1cccnc1`, the cytotoxicity at 70.5 h came out at 12.5%. In the case of `Cn1c2c(c(=O)n1C)CN(C(=O)c1ccncc1F)CCC2`, the cytotoxicity at 70.5 h was 5.23%.

Take `c1cnc(N2CCOC3(COCCN(Cc4cc[nH]n4)C3)C2)nc1` (centres undefined): the cytotoxicity at 70.5 h was -8.27%. Regarding `CC(NC(=O)CN1CCN(c2ccncc2Cl)CC1)c1ccco1` (centres undefined), the cytotoxicity at 70.5 h is -7.35%.

`CSC(C)C(=O)N1CCN(CCO)CC1` (centres undefined): the cytotoxicity at 70.5 h was -6.94%. As for `CCCC(C)NC(=O)c1ccc(-c2ccco2)[nH]c1=O` (centres undefined), the figure is -2.99%. As to `Cc1cc(N2CCOC(C(F)(F)F)C2)nc(-c2ccccc2O)n1` (centres undefined), the cytotoxicity at 70.5 h is -6.3%. Consider `CCNC(=O)c1ccc(NC(=O)N(C)Cc2cccn2C)c(C)c1`, for which the cytotoxicity at 70.5 h stood at 5.27%. As for `O=C(NCC1CCOC1)c1csc(-c2ccc(F)cc2)n1` (centres undefined), the figure is -6.03%; as for `Cc1cnn(CC2CCCN2C(=O)c2cc(C)nc3[nH]nc(C)c23)c1` (centres undefined), -3.88%; as for `CC1=NOC2(CCN(Cc3c[nH]c4ccccc34)CC2)C1`, -9.21%. For the compound `Cc1noc(C)c1CN1CC2(CCN(C(=O)c3cscn3)CC2)CC1=O`, the cytotoxicity at 70.5 h was -10.1%. For `COc1ccccc1C1CCN(C(=O)CN2C(=O)OC(C)(C)C2=O)CC1`, the cytotoxicity at 70.5 h was -6.76%. Turning to `CC(=O)N1N=C(COc2ccc(C)cc2)OC1c1ccc(N(C)C)cc1` (centres undefined), the cytotoxicity at 70.5 h is -6.08%. For the compound `Cc1cc(C)n(CC2CN(CC(=O)Nc3ccncc3)CCO2)n1` (centres undefined), the cytotoxicity at 70.5 h is -2.52%. Regarding `Cc1ncoc1C(=O)N1C[C@@H]2CN(CC3CC3)CCO[C@@H]2C1`, the cytotoxicity at 70.5 h came to 10.6%. With `Cc1cc(C)n(C2CN(CC(=O)N(C)Cc3cnn(C)c3)C2)n1`, the cytotoxicity at 70.5 h is -7%. With `c1cnc(NC[C@H]2OC[C@@H]3CCN(Cc4nccs4)C[C@@H]32)nc1`, the cytotoxicity at 70.5 h was 21.4%. Then `CCCc1noc(C(C)S(=O)(=O)Cc2nc(C3CC3)no2)n1` (centres undefined), with -2.49%.

As to `CN(C)C(=O)Cc1nc(CN2CCCCC2Cn2cncn2)cs1` (centres undefined), the cytotoxicity at 70.5 h turned out to be 23.2%.

In the case of `CC(C)(C)c1n[nH]c(C2CN(Cc3nnc(C4CC4)o3)CCO2)n1` (centres undefined), the cytotoxicity at 70.5 h was -6.03%. Take `Cc1ccc(-c2noc(C(C)(C)NS(C)(=O)=O)n2)cc1F`: the cytotoxicity at 70.5 h is -2.69%. As to `CCc1onc(C)c1C(=O)N1CCN(c2ncc3c(n2)CCOC3)CC1`, the cytotoxicity at 70.5 h is -1.33%. Turning to `CC(C)CN1C(=O)CC(N2CCN(c3ccc(F)cc3)CC2)C1=O` (centres undefined), the cytotoxicity at 70.5 h came to 13.6%.

For `Cn1cnc2c1C(COCC1CC1)CN(C(=O)c1ccsc1)C2` (centres undefined), the cytotoxicity at 70.5 h was found to be 6.4%. For `COc1c(CNC2CCN(C(=O)C3CC3)CC2)c(C(C)C)nn1C`, the cytotoxicity at 70.5 h is 0.393%.

With `COc1ccc2oc(C(C)NC(=O)NC3CCN(C)CC3)c(C)c2c1` (centres undefined), the cytotoxicity at 70.5 h is -13.4%. Then `O=C(CC1CCCC1)N1C[C@@H]2C[C@H]1CN2`, with -3.6%. For `CCN(CC)C(=O)c1nnsc1-c1ccccc1`, the cytotoxicity at 70.5 h was -10.3%. Consider `CC(C)(C)OC(=O)N1CSC[C@@H]1C(=O)NCc1ccc(C#N)cc1`, for which the cytotoxicity at 70.5 h is -3.01%.

In the case of `c1cc(-c2nnc([C@H]3CCN(C4CCOCC4)C3)o2)ccn1`, the cytotoxicity at 70.5 h stood at 2.55%. `CCC(=O)N1CCCc2c(cnn2C)C1`: the cytotoxicity at 70.5 h came out at 23.9%. As for `Cc1ncsc1CN(Cc1ccccc1)Cc1ncc[nH]1`, the figure is 17.5%; as for `O=C(NCCc1ccccc1)NCC(O)c1cccc(F)c1` (centres undefined), -3.34%.

For `CCOCCC1(CNC(=O)c2ccncc2Cl)CCC1`, the cytotoxicity at 70.5 h is -2.65%. Turning to `CS(=O)(=O)NC[C@@H]1OC[C@H]2CN(Cc3ccsc3)CC[C@H]21`, the cytotoxicity at 70.5 h worked out at 18.6%. Consider `O=C1[C@@H]2CCN(CC3CC3)C[C@@H]2OCCN1c1ccsc1`, for which the cytotoxicity at 70.5 h is -2.56%. As to `Cn1ccc(CN2CCC3(CC2)CC(Nc2cnccn2)CO3)n1` (centres undefined), the cytotoxicity at 70.5 h is -1.03%. For `Cn1cc(Cl)cc1C(=O)N1CCCN(Cc2cccs2)CC1`, the cytotoxicity at 70.5 h amounted to 4.57%. As for `Cn1cc(-c2cnc(N3CCOCC3)nc2)cc1C(=O)NCCC#N`, the figure is -9.71%; as for `CCc1nc(C)c([C@H]2CN(C)C[C@@H]2C(=O)Nc2cccc3cn[nH]c23)[nH]1`, -5.72%; as for `CC(=O)N(C)CC(=O)Nc1cnc(-n2ccnc2)nc1`, 0.242%.

`O=C(NCCOc1ccccc1)NCC(O)c1cccs1` (centres undefined): the cytotoxicity at 70.5 h was -11.8%. Take `O=C(Cc1cccs1)N1CCOCC1CO` (centres undefined): the cytotoxicity at 70.5 h was -3.61%. In the case of `Cc1ccc(C2CCCN(S(=O)(=O)N3CCOCC3)C2)nc1` (centres undefined), the cytotoxicity at 70.5 h is -4.54%. `O=C(Cc1ccccc1)N1CCC2(CC(=O)N(c3cccc(F)c3)C2)C1` (centres undefined): the cytotoxicity at 70.5 h was -4.78%. `CCCN1CCC(Cc2nc(CN3CCN(C)CC3)no2)CC1`: the cytotoxicity at 70.5 h was -5.37%.

Regarding `CCC(=O)N1CCCC(Cn2cc(-c3ccc(F)cc3)nn2)C1` (centres undefined), the cytotoxicity at 70.5 h is -6.83%. For the compound `Cc1ccc(C(=O)N2C[C@@H]3COC[C@]3(COCc3cccnc3)C2)cn1`, the cytotoxicity at 70.5 h is -6.21%. Turning to `COCCNC(=O)c1cn(C(C)(C)C)c2ncccc12`, the cytotoxicity at 70.5 h was -5.71%. Consider `CCn1c(C)nnc1SCCn1cc(-c2ncc[nH]2)nn1`, for which the cytotoxicity at 70.5 h is -5.72%. For `COCCNS(=O)(=O)c1cccc2c1CN(C(=O)c1cnccn1)CC2`, the cytotoxicity at 70.5 h was -3.11%. On to `COc1ccc(OC2CCN(C(=O)CCc3nc(Cl)n[nH]3)CC2)cc1`, for which the cytotoxicity at 70.5 h was -4.51%. As for `CCCc1nc(Cn2c(=O)n(C)c3ccccc32)no1`, the cytotoxicity at 70.5 h is -6.48%.

As for `O=C1CCc2cc(S(=O)(=O)NC(=O)c3ccc4c(c3)CCO4)ccc2N1`, the cytotoxicity at 70.5 h was -1.87%.

Regarding `Cc1nc(NCC2CC2)nc2c1COCC21CCNC1` (centres undefined), the cytotoxicity at 70.5 h was 5.46%. Turning to `O=C(c1scc2c1OCCO2)N1CCN(Cc2cccc(F)c2)CC1`, the cytotoxicity at 70.5 h worked out at 20.1%. Turning to `Cn1c(C2CC2)nc2cc(NC(=O)C3CCOC3)ccc21` (centres undefined), the cytotoxicity at 70.5 h is -4.07%. Turning to `CCc1cnc(NCCSc2cnn[nH]2)nc1`, the cytotoxicity at 70.5 h is 28.2%. Turning to `COc1ccc(C(=O)C2CCCN(c3cc(C#N)ccn3)C2)cc1F` (centres undefined), the cytotoxicity at 70.5 h was -6.04%. As to `Cn1cnc(S(=O)(=O)N2CCN(CC3CC3)c3ncccc3C2)c1`, the cytotoxicity at 70.5 h is -6.52%. Consider `CCN1CCN(C[C@@H]2CN(c3ncccc3F)C[C@@H]2CO)CC1`, for which the cytotoxicity at 70.5 h worked out at 23.4%.

On to `COc1ccccc1CNC(C)c1ccc2[nH]c(=O)[nH]c2c1` (centres undefined), for which the cytotoxicity at 70.5 h stood at 1.17%. As for `CN(C)Cc1cc(C2CCCN(S(=O)(=O)c3cccc(Cl)c3)C2)nn1C` (centres undefined), the figure is -14.6%; as for `Cc1cc(CNC(=O)CC2CN(C(=O)OC(C)(C)C)C2)ccc1F`, -9.79%; as for `Cc1nc(C(NC(=O)CN(C)C(C)C)c2ccccc2F)no1` (centres undefined), -4.07%. Then `Cc1nn(CC(=O)N2CCCC2Cn2cccn2)c(C)c1Cl` (centres undefined), with 9.12%; and `CN1CCC/C1=N\S(=O)(=O)c1ccc(NC(=O)c2ccc(Cl)cc2)cc1`, with 1.42%; and `CCCN(CC1CC1)C(=O)Nc1ccc(N2CCSCC2)cc1C`, with -8.14%. Consider `CCc1csc(C2CCCN(C(=O)c3ccc(=O)n(C)n3)C2)n1` (centres undefined), for which the cytotoxicity at 70.5 h is -11.3%. Regarding `COc1ccc(C(=O)Nc2c(C(=O)N(C)C)nn(C)c2C)cc1`, the cytotoxicity at 70.5 h is -6.56%. As to `CS(=O)(=O)c1ccc(CNc2nccc(C(F)(F)F)n2)cc1`, the cytotoxicity at 70.5 h is -1.16%. `O=C(C1CCCC1)N1CC(c2nc(Cc3ccccc3)no2)C1`: the cytotoxicity at 70.5 h was -14.5%. For `CC(C)c1nn(C)c(N(C)C)c1CNCc1ccccc1CN(C)C`, the cytotoxicity at 70.5 h is -0.417%. As for `COc1ccc(NC(=O)N2CCCC2c2ccncc2)cn1` (centres undefined), the figure is -11.6%; as for `CN(Cc1ccncc1)c1cncc(Br)c1`, -14.6%; as for `COCCn1c(C(=O)NCc2n[nH]c(C)n2)cc2ccccc21`, -0.294%. Then `CSc1ccc(CN(CCO)Cc2nccn2C)cc1`, with -3.61%; and `CCc1nc(-c2ccc(C(=O)N3CCC4(CC3)OCCO4)cc2)no1`, with -21.2%.

For `CCS(=O)(=O)c1nnc([C@@H](N)Cc2ccccc2)o1`, the cytotoxicity at 70.5 h is 16.2%. Then `CC(c1nc(C2CC2)no1)N1CCN(Cc2ccc(C#N)cc2)CC1` (centres undefined), with 5.31%; and `Cc1nc(C)c(C(=O)N2C[C@@H](C(=O)O)[C@H](C3CC3)C2)s1`, with -1.71%. As to `CCOCCCC(=O)Nc1cc(C(N)=O)ccc1N1CCCCC1`, the cytotoxicity at 70.5 h is -9.3%.

Regarding `CO[C@H]1CN(Cc2c(C)ccc3ncccc23)CC[C@H]1N`, the cytotoxicity at 70.5 h was 2.94%. `N#Cc1cccc(CN2CCCC2Cn2cncn2)c1` (centres undefined): the cytotoxicity at 70.5 h was -4.98%. As for `c1cnn(-c2ccc(CN3CCCC(Cn4cncn4)C3)cc2)c1` (centres undefined), the cytotoxicity at 70.5 h is -1.71%. `COCCC(C)NC(=O)N1CCC(n2ccc(C(F)(F)F)n2)CC1` (centres undefined): the cytotoxicity at 70.5 h was -98.6%. With `FC(F)(F)c1ccc(-c2cnc(C3CCCN3)cn2)cc1` (centres undefined), the cytotoxicity at 70.5 h was 13.6%.

In the case of `OCCC1CN(c2ncnc3[nH]cnc23)CCN1Cc1cccs1` (centres undefined), the cytotoxicity at 70.5 h was -3.01%. Turning to `Cn1cc(S(=O)(=O)NCCc2ccsc2)cn1`, the cytotoxicity at 70.5 h was -6.26%. On to `OCc1ccc(-c2nccn2CCC2=CCCCC2)o1`, for which the cytotoxicity at 70.5 h is -9.58%.

Turning to `COc1cc(C(=O)NCC2CCCN(Cc3ccco3)C2)ccn1` (centres undefined), the cytotoxicity at 70.5 h amounted to 16.1%. For the compound `O=C(NCCC(O)c1ccoc1)Nc1cccs1` (centres undefined), the cytotoxicity at 70.5 h is -9.28%. With `CCN(CC)C1CCN(c2ncnc3c2CCN(C(=O)C2CC2)C3)C1` (centres undefined), the cytotoxicity at 70.5 h is -2.79%.
